Here are results for ten compounds from ChEMBL document CHEMBL1201862, “PubChem BioAssay data set” (2004).

Active and inactive are the calls of the source. A value given as a limit tells only on which side of the number the result lay.

Usually AC50 stands for the concentration giving half of the maximal activity seen. By EC50 is commonly meant the concentration that produces a half-maximal response.

The target of assay [1] is T1, Low molecular weight phosphotyrosine protein phosphatase (Homo sapiens, UniProt P24666).
T1 sequence (P24666 whole entry): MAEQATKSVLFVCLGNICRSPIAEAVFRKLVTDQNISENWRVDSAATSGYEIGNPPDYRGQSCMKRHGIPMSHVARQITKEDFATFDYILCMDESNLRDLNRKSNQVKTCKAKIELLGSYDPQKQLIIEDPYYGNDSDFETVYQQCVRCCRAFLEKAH
In kind it is functional. The following applies: read-out: IC50_Mean.

Assay [2] addresses T1, Low molecular weight phosphotyrosine protein phosphatase. In kind it is functional. Conditions: read-out: IC50_Mean. This is another data set of the same source.
A further assay concerns the target Albumin (Bos taurus, UniProt P02769). Put plainly: Counterscreen for inhibitors of T-cell receptor (TCR)-CD3 interaction: Fluorescence-based biochemical high throughput dose response assay to identify inhibitors of T-cell receptor (TCR)-CD3 interaction using a TAMRA-labeled BSA probe. In kind it is functional. (In general: Counterscreens check selectivity or assay interference.)

In assay [3] the target is T2, Sentrin-specific protease 8 (Homo sapiens, UniProt Q96LD8).
T2 sequence (Q96LD8 whole entry): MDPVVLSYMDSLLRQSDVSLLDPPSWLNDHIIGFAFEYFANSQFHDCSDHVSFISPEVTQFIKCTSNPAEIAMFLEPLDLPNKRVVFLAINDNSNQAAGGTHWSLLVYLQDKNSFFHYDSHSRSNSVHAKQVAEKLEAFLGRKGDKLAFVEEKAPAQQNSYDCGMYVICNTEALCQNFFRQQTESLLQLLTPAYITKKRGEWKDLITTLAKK
Type of assay: functional.

For assay [4], the target named is T2, Sentrin-specific protease 8. In kind it is functional. This is another data set of the same source.
Assay [5] concerns the target T3, Mannose-6-phosphate isomerase (Homo sapiens, UniProt P34949).
T3 sequence (P34949 whole entry): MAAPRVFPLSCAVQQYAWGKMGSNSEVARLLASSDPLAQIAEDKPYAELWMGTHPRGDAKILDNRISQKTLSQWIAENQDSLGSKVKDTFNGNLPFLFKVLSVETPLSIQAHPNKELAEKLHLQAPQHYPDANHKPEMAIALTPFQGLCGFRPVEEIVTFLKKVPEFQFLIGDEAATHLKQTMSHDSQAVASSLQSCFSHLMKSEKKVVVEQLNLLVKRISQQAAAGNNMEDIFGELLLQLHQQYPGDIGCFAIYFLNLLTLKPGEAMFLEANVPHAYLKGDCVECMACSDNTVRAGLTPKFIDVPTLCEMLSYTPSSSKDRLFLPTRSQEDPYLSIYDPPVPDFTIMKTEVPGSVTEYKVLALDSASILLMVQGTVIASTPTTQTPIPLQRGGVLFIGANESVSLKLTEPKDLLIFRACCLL
The experiment in a line: human PMI inhibitors, high substrate, primary screen, biochemical, fluorescence intensity, high mannose 6-phosphate (AID 1220).

Assay [6] can be described thus: T. cruzi growth inhibition in host cells, dose response, cell-based, plate reader, dry powder, set 2 (AID 652275). Type of assay: functional.
Assay [7] in a line: microbe, parasite or virus in culture. In kind it is functional. Conditions: Mycobacterium tuberculosis.
The next assay addresses Melanocortin receptor 4 (Homo sapiens, UniProt P32245). Type of assay: functional, cell-based.
The target of a further assay is Beta-galactosidase (Escherichia coli, UniProt Q8VNN2). The experiment in a line: PubChem AID 485352. Type of assay: functional.
Beta-galactosidase, sequence (Q8VNN2 whole entry): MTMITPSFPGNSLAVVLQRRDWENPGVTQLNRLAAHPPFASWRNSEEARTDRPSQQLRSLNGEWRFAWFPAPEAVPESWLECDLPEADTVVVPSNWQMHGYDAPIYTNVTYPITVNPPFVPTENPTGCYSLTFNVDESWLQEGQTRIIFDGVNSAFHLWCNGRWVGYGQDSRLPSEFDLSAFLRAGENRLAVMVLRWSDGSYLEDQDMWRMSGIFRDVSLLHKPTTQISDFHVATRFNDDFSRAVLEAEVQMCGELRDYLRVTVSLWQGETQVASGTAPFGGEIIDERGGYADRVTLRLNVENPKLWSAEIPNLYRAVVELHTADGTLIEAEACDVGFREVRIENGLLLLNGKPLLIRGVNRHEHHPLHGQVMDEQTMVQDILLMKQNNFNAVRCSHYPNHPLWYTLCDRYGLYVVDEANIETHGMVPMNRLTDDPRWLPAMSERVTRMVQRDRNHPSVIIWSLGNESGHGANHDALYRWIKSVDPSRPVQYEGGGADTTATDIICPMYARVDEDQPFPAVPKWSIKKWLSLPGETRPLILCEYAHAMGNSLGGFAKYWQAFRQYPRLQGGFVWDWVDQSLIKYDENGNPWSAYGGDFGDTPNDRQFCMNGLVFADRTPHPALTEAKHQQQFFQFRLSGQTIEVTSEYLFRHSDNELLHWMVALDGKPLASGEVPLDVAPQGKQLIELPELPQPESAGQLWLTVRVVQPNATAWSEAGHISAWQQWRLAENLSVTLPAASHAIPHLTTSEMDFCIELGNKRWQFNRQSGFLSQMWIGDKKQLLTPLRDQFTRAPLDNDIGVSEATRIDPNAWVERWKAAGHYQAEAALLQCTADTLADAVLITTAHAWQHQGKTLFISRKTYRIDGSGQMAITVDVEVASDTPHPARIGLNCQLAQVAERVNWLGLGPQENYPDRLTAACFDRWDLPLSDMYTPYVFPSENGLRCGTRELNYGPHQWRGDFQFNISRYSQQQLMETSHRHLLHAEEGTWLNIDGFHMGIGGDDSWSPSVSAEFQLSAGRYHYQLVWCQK
Assay [8] in a line: human group III sPLA2 inhibitors, dose response, biochemical, QFRET, IC50 (AID 743457).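 Also: green fluorescence rise as the enzyme cleaves BODIPY PC-A2 in liposomes; potency for inhibition of the enzyme.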
The target of assay [9] is T4, Type-1 angiotensin II receptor (Homo sapiens, UniProt P30556).
T4 sequence (P30556 whole entry): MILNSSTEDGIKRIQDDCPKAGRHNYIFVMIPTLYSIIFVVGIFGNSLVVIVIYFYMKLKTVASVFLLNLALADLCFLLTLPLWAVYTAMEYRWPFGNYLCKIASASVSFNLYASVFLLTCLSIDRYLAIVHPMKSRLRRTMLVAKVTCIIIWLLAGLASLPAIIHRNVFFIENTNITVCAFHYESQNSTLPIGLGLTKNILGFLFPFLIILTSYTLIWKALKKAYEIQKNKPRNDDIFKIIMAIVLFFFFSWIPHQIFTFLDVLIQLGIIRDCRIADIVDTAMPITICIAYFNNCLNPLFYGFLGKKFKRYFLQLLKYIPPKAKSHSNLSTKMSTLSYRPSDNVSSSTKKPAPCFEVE
Put plainly: AT1 receptor antagonists, dose response, selectivity assay for APJ receptor antagonist project, cell-based, uHTS hits (AID 463214).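 Also: antagonist potency against angiotensin II stimulated AT1 response.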 Type of assay: functional.

Assay [10] in a line: cytotoxicity toward HCT116 cells – cell-based, CellTiter-Glo luminescence, IC50, dose response (AID 1117332). Type of assay: functional. Conditions: HCT-116.
Assay [11] can be described thus: Concentration-dependent survival of SW480 colon cancer line, luminescence detection with CellTiter-Glo, half-maximal inhibitory concentration (AID 1117338). In kind it is functional.
A short description of assay [12]: CellTiter-Glo luminescent dose response of DLD-1 viability loss (AID 1117352). Type of assay: functional. (In ATP-based viability assays light output follows the ATP content of the culture.)
A short description of assay [13]: HeLa 4N DNA content increase, dose response, cell-based, IC50 (AID 1117351). Type of assay: functional.
The nature of assay [14]: HeLa 2N DNA content increase, dose response, cell-based, IC50 (AID 1117349). In kind it is functional.
A short description of assay [15]: SNU-C1 cell viability reduction, dose response, CellTiter-Glo luminescence (AID 1117323). Type of assay: functional, cell-based.
Assay [16] in a line: cytotoxicity toward HT-29 cells – cell-based, CellTiter-Glo luminescence, IC50, dose response (AID 1117330). Type of assay: functional.
Assay [17] is described as follows: RKO cell viability reduction, dose response, CellTiter-Glo luminescence (AID 1117322). Type of assay: functional.
Assay [18] can be described thus: HCT116 cell viability decrease, GSK3B pretreatment – CellTiter-Glo, IC50, dose response (AID 1117339). In kind it is functional. Conditions: HCT-116.
A short description of assay [19]: cytotoxicity toward Colo320 cells – cell-based, CellTiter-Glo luminescence, IC50, dose response (AID 1117334). Type of assay: functional. The following applies: COLO 320.

Albumin, sequence (P02769 whole entry): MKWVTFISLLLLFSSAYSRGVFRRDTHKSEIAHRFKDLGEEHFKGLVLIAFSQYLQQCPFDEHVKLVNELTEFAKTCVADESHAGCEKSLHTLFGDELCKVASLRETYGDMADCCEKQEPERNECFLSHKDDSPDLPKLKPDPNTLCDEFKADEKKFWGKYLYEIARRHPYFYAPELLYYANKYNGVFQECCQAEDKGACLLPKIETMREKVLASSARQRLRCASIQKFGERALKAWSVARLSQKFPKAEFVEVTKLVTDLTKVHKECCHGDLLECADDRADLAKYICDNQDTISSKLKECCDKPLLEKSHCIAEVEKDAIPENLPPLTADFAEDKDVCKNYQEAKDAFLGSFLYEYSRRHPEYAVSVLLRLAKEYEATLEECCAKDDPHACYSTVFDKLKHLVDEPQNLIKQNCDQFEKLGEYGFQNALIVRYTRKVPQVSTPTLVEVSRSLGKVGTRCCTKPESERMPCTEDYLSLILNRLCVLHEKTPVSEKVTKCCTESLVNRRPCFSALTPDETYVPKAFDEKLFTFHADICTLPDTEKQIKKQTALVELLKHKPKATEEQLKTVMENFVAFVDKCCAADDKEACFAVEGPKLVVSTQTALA
Melanocortin receptor 4, sequence (P32245 whole entry): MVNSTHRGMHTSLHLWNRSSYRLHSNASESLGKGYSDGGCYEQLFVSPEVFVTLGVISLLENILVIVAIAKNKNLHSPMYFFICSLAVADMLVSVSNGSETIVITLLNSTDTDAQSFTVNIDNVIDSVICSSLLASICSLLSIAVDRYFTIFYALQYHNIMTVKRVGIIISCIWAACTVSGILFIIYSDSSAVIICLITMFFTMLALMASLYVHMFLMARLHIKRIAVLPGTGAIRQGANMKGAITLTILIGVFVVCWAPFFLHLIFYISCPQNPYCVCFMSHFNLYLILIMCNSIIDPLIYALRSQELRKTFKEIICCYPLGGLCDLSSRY

Take `Fc1ccccc1-c1nc(NCCCN2CCOCC2)c2ccccc2n1`: the IC50 in assay [1] is 33 µM (inactive); in assay [2], 13 µM (active).
As to `O=C1NC(=O)N(Cc2ccco2)C(=O)/C1=C/NNC(=O)c1ccccc1`, the IC50 at Albumin was > 94.2 µM (inactive).
For `O=C(O)c1cccc(N2C(=O)c3ccc4c5c(ccc(c35)C2=O)C(=O)N(c2cccc(C(=O)O)c2)C4=O)c1`, the values for the IC50 in assay [3] and in [4] were 16.5 µM (active) and 13.7 µM (active), respectively.
On to `CN(C)C=O.Cc1cc(-c2ccco2)c(C#N)c2nc3ccccc3n12`, for which the IC50 in assay [5] was > 50 µM (not active); in assay [1], > 80 µM (inactive); in assay [2] it was 37.5 µM (inactive).
Take `CC(C)(C)[S@@+]([O-])N1Cc2cc(C(=O)NCc3ccc4c(c3)OCO4)nc(-c3cccc(-c4ccccc4)c3)c2[C@H]1CCO`: the AC50 in [6] was 0.309 µM (active).
For `Cc1ccc(CN2CCC(c3cc(-c4ccc(Cl)cc4)[nH]n3)CC2)cc1`, in [7], the CC50 was > 40 µM (active). Besides, on Melanocortin receptor 4, the EC50 is > 89.2 µM (inactive).
On to `CCN=C(S)NNc1nnc(-c2ccccc2)c(-c2ccccc2)n1`, for which the EC50 at Beta-galactosidase was > 40 µM (inactive). The IC50 in assay [8] was > 122 µM (inactive); in [9], > 40 µM (not active).
Take `Cc1n[nH]c(S/C(=C/c2ccc(OCc3ccc(C(=O)O)cc3)cc2)C(=O)O)n1`: the IC50 on Albumin is > 94.1 µM (inactive).
With `O=C(Nc1ccc(Br)cc1)c1cc(Br)cc(Br)c1O` [TRIBROMSALAN], the IC50 in assay [10] was 0.003 µM (active); in assay [11], 0.001 µM (active); in assay [12], 0.001 µM (active); in assay [13], > 10 µM (inactive); in assay [14], > 10 µM (inactive); in [15], 0.001 µM (active). Moreover, the IC50 in assay [16] was 0.001 µM (active); in [17] it was 0.003 µM (active); in assay [18], 0.001 µM (active); in [19], 0.003 µM (active).
As for `C=CCN1CC[C@]23CCCC[C@H]2[C@H]1Cc1ccc(O)cc13` [LEVALLORPHAN], the IC50 in assay [10], in assay [11], in [12], in assay [15], in assay [16] and in [17] was > 20 µM (inactive) throughout. Also, the IC50 in assay [18] and in assay [19] was > 20 µM (inactive) in each case.
